According to ChEMBL document CHEMBL1201862, “PubChem BioAssay data set” (2004):
Activity calls are given as the source filed them.

Legend:
Assay type in all cases: functional
Aurora kinase B = Aurora kinase B (Homo sapiens, UniProt Q96GD4)
[1] = molecular target: Mitogen-activated protein kinase kinase kinase kinase 2 (Homo sapiens, UniProt Q12851);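 also: measured as one member of a kinome-wide kinase panel, with MAP4K2 as the panel entry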
[2] = molecular target: T1, Tyrosine-protein kinase receptor TYRO3 (Homo sapiens, UniProt Q06418);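 also: TYRO3 value obtained as one member of a kinome-wide profiling panel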
T1 sequence (Q06418 whole entry): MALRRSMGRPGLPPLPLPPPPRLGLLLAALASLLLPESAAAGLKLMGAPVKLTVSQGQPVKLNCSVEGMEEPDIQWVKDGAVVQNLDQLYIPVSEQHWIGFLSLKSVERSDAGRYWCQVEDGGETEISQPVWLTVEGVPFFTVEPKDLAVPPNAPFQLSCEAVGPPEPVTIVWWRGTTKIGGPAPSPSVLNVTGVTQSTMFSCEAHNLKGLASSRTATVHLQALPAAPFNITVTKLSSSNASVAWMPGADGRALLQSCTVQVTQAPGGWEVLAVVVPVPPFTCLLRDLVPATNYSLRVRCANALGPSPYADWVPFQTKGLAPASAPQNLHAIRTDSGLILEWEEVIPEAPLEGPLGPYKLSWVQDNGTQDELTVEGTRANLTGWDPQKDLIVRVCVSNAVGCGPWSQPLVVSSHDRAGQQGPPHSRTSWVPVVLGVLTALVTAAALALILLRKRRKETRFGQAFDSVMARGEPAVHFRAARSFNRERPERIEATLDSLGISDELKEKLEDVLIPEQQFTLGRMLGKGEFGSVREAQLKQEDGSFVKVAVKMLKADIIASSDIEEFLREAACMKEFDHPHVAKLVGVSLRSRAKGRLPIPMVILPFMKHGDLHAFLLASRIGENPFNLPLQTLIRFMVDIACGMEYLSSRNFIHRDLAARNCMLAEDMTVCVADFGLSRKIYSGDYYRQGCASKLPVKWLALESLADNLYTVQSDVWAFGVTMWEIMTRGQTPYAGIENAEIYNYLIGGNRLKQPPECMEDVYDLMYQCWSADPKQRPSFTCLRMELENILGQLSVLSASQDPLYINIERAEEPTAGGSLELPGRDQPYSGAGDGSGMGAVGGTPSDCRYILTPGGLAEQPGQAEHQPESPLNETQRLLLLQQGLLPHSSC

[3] = molecular target: Tyrosine-protein kinase JAK3 (Homo sapiens, UniProt P52333)
[4] = molecular target: High affinity nerve growth factor receptor (Homo sapiens, UniProt P04629);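 also: NTRK1 tested as one member of a kinome-wide profiling panel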
[5] = molecular target: Serine/threonine-protein kinase PAK 4 (Homo sapiens, UniProt O96013);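 also: value obtained within a kinome profiling panel in which PAK4 was one of the panel members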
Aurora kinase A = Aurora kinase A (Homo sapiens, UniProt O14965);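 also: value from the Navigating the Kinome kinase panel profiling, panel entry STK6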
[6] = molecular target: Cyclin-dependent kinase 8 (Homo sapiens, UniProt P49336); test: Navigating the Kinome. Panel member name: CDK8
Cyclin-dependent kinase 8, sequence (P49336 whole entry): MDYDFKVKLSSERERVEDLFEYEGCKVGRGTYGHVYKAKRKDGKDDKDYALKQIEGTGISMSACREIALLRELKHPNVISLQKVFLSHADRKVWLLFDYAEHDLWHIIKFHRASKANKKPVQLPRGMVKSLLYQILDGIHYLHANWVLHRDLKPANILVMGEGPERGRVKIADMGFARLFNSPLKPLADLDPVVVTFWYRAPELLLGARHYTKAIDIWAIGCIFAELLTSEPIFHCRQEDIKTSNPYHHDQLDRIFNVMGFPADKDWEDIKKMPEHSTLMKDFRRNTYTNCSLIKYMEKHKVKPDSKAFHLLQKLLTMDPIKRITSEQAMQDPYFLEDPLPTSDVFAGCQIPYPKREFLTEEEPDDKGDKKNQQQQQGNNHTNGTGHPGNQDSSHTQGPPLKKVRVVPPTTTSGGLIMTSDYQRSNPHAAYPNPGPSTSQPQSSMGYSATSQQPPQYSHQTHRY

[7] = molecular target: Insulin-like growth factor 1 receptor (Homo sapiens, UniProt P08069); test: Navigating the Kinome. Panel member name: IGF1R
[8] = molecular target: Macrophage colony-stimulating factor 1 receptor (Homo sapiens, UniProt P07333);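 also: value comes from the Navigating the Kinome screening panel, CSF1R member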
[9] = molecular target: Ribosomal protein S6 kinase alpha-3 (Homo sapiens, UniProt P51812);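 also: measured within a kinome-wide profiling panel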
[10] = molecular target: Cyclin-dependent kinase 5 (Homo sapiens, UniProt Q00535);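 also: CDK5 measured as one member of a kinase profiling panel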
Cyclin-dependent kinase 5, sequence (Q00535 whole entry): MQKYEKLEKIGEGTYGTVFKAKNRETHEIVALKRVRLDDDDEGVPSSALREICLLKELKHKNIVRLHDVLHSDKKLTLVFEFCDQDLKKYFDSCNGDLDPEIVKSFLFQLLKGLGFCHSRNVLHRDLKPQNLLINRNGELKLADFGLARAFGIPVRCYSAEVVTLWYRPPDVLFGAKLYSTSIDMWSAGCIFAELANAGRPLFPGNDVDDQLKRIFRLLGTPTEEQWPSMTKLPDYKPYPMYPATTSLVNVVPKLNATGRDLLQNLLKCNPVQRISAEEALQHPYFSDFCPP

[11] = molecular target: Serine/threonine-protein kinase TAO1 (Homo sapiens, UniProt Q7L7X3)
Serine/threonine-protein kinase TAO1, sequence (Q7L7X3 whole entry): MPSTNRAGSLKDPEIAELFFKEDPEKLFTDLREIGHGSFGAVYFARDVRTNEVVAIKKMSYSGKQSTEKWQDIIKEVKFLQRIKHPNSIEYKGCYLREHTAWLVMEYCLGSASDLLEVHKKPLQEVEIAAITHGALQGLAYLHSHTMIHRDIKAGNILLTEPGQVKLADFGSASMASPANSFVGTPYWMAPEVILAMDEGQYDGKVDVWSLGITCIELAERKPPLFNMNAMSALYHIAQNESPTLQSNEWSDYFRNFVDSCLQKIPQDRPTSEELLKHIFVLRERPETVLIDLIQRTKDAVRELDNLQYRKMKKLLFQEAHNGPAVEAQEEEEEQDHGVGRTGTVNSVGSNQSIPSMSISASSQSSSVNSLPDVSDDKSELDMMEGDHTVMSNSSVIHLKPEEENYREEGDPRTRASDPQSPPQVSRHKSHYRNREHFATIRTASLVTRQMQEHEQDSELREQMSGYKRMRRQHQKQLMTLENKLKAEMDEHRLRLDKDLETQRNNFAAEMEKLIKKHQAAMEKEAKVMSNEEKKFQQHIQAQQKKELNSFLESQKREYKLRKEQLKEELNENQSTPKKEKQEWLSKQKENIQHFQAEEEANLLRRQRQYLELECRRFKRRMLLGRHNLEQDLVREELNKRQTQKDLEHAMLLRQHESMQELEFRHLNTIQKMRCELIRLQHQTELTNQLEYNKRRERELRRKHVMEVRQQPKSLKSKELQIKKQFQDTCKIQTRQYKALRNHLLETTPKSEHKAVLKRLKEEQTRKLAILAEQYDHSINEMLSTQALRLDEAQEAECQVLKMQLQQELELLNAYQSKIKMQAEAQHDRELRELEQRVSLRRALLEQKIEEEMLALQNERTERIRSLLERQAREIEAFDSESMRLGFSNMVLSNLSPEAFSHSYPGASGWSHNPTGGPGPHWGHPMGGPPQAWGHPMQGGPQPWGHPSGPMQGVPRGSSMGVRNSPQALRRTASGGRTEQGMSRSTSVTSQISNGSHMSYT

[12] = molecular target: Death-associated protein kinase 3 (Homo sapiens, UniProt O43293);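 also: measured as one member of a kinome-wide profiling panel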
Death-associated protein kinase 3, sequence (O43293 whole entry): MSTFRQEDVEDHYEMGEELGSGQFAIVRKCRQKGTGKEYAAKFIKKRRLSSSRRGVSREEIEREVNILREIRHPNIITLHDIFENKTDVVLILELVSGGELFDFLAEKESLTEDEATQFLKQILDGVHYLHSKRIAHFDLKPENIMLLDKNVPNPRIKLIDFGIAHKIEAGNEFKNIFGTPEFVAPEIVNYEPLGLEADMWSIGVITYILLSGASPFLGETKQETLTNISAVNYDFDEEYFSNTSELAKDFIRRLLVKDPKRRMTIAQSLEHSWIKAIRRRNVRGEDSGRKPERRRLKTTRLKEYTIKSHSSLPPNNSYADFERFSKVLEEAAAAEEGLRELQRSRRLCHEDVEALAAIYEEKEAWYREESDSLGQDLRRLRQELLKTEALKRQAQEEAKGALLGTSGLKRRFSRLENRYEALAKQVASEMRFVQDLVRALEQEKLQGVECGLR

[13] = molecular target: Cyclin-dependent kinase 9 (Homo sapiens, UniProt P50750);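 also: value from the CDK9 entry of a kinome-spanning kinase panel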
Cyclin-dependent kinase 9, sequence (P50750 whole entry): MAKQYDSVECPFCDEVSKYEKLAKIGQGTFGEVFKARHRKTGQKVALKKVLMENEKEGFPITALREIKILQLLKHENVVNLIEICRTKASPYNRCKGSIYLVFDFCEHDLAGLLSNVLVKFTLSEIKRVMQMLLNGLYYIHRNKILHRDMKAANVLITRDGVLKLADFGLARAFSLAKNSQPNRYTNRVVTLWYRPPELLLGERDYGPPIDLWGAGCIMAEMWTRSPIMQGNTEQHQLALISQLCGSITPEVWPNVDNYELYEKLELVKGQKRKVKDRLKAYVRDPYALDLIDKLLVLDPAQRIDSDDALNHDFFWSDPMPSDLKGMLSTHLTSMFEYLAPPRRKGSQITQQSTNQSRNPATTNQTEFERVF

[14] = molecular target: Tyrosine-protein kinase JAK2 (Homo sapiens, UniProt O60674);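 also: JAK2 tested as one member of a kinase panel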
[15] = molecular target: Tyrosine-protein kinase Fyn (Homo sapiens, UniProt P06241)
Tyrosine-protein kinase Fyn, sequence (P06241 whole entry): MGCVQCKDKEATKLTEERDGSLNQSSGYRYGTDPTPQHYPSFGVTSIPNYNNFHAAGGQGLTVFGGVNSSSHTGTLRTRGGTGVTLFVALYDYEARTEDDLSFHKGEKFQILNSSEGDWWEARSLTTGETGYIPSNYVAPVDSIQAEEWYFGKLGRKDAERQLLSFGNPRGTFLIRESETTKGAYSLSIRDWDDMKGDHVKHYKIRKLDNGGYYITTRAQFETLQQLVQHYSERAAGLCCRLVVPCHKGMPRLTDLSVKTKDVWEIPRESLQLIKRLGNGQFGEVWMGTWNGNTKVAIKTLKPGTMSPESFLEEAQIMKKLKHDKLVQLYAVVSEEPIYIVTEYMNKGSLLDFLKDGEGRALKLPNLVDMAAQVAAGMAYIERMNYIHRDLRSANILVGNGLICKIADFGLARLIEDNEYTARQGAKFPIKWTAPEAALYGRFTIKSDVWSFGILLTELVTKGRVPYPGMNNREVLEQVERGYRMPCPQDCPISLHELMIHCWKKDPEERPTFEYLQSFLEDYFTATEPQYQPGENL

[16] = molecular target: 5'-AMP-activated protein kinase catalytic subunit alpha-1 (Homo sapiens, UniProt Q13131)
5'-AMP-activated protein kinase catalytic subunit alpha-1, sequence (Q13131 whole entry): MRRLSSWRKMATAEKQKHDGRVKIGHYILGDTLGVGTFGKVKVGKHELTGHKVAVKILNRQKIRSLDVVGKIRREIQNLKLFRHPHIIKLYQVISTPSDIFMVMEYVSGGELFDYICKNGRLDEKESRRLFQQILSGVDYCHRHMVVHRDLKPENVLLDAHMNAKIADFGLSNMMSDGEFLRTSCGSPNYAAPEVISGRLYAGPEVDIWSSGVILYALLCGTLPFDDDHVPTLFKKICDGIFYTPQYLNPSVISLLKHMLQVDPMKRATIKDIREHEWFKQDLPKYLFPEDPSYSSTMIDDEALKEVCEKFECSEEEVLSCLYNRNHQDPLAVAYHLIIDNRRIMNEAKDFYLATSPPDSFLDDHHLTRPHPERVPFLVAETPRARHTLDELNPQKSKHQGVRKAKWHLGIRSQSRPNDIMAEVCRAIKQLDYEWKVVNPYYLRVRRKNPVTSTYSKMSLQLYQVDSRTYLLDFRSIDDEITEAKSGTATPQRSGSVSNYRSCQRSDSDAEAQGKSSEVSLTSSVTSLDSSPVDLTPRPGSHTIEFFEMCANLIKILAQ

[17] = molecular target: Mitogen-activated protein kinase 8 (Homo sapiens, UniProt P45983);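 also: value comes from one member of a kinome-wide kinase profiling panel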
Mitogen-activated protein kinase 8, sequence (P45983 whole entry): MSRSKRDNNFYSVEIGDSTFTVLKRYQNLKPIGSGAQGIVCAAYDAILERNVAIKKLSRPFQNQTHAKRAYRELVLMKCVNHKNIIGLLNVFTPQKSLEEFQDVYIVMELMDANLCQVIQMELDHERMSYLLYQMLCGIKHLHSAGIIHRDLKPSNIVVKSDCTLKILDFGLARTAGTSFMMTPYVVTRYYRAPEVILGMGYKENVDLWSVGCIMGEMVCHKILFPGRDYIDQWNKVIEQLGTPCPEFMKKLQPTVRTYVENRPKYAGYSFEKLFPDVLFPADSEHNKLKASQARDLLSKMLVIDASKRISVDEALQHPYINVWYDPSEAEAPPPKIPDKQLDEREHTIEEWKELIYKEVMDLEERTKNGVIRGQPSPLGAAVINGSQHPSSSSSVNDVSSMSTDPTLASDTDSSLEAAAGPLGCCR

[18] = molecular target: Tyrosine-protein kinase ABL1 (Homo sapiens, UniProt P00519)
[19] = molecular target: Vascular endothelial growth factor receptor 1 (Homo sapiens, UniProt P17948);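 also: measured within a kinome-wide profiling panel, FLT1 as the panel member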
[20] = molecular target: Serine/threonine-protein kinase Nek2 (Homo sapiens, UniProt P51955)
Serine/threonine-protein kinase Nek2, sequence (P51955 whole entry): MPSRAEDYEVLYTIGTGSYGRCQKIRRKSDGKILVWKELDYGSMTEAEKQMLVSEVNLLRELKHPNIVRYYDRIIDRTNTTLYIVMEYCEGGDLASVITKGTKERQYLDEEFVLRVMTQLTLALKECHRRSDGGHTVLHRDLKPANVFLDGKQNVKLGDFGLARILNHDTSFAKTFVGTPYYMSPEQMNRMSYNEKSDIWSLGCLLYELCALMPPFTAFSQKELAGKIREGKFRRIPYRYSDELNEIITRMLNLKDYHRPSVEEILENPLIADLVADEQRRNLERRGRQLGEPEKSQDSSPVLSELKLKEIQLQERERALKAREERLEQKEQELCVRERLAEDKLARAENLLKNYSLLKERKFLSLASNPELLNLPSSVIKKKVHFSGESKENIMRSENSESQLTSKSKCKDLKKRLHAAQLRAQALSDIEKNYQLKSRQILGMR

[21] = molecular target: Receptor-type tyrosine-protein kinase FLT3 (Homo sapiens, UniProt P36888);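 also: FLT3 was tested as one member of a kinome-wide kinase panel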
[22] = molecular target: BDNF/NT-3 growth factors receptor (Homo sapiens, UniProt Q16620);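 also: NTRK2 measured as one member of a broad kinome-wide kinase profiling panel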
[23] = molecular target: Glycogen synthase kinase-3 beta (Homo sapiens, UniProt P49841);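 also: value comes from a broad kinome profiling panel, with GSK3B as the panel member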
Glycogen synthase kinase-3 beta, sequence (P49841 whole entry): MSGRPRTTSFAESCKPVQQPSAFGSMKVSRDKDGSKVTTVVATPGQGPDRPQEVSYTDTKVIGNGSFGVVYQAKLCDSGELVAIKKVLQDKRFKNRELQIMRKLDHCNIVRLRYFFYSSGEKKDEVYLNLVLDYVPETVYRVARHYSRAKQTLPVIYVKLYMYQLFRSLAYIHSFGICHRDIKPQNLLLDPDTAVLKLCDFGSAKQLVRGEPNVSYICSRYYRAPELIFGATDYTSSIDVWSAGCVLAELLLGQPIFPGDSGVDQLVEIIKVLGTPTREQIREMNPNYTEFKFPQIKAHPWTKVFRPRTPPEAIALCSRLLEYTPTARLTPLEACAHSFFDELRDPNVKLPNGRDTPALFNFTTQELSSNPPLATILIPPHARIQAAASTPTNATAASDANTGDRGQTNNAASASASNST

[24] = molecular target: Tyrosine-protein kinase Lck (Homo sapiens, UniProt P06239);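 also: lck was assayed as one member of a kinase panel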

Structure (SMILES): Cc1n[nH]c2ccc(-c3cncc(OCC(N)Cc4ccc(Cl)c(Cl)c4)c3)cc12 (configuration not stated)
- Ki (Aurora kinase B): 251 nM (active)
- Ki [1]: 63.1 nM (active)
- Ki [2]: > 2000 nM (inactive)
- Ki [3]: 1260 nM (active)
- Ki [4]: > 2510 nM (inactive)
- Ki [5]: 79.4 nM (active)
- Ki (Aurora kinase A): 1000 nM (active)
- Ki [6]: 12.6 nM (active)
- Ki [7]: > 2000 nM (inactive)
- Ki [8]: > 2510 nM (inactive)
- Ki [9]: 15.8 nM (active)
- Ki [10]: 12.6 nM (active)
- Ki [11]: 631 nM (active)
- Ki [12]: 126 nM (active)
- Ki [13]: 200 nM (active)
- Ki [14]: > 1580 nM (inactive)
- Ki [15]: > 794 nM (inactive)
- Ki [16]: 31.6 nM (active)
- Ki [17]: 2510 nM (active)
- Ki [18]: > 631 nM (inactive)
- Ki [19]: > 398 nM (inactive)
- Ki [20]: > 10000 nM (inactive)
- Ki [21]: 100 nM (active)
- Ki [22]: > 5010 nM (inactive)
- Ki [23]: 31.6 nM (active)
- Ki [24]: > 2510 nM (inactive)

Structure (SMILES): [2H]C([2H])([2H])Oc1cccc(C(C)NC(=O)c2sc(-c3ccncc3)nc2C)c1 (configuration not stated)
- Ki (Aurora kinase B): > 3980 nM (inactive)
- Ki [1]: > 2510 nM (inactive)
- Ki [2]: > 3160 nM (inactive)
- Ki [3]: > 5010 nM (inactive)
- Ki [4]: > 3160 nM (inactive)
- Ki [5]: > 5010 nM (inactive)
- Ki (Aurora kinase A): > 1580 nM (inactive)
- Ki [6]: > 3980 nM (inactive)
- Ki [7]: > 2510 nM (inactive)
- Ki [8]: > 2510 nM (inactive)
- Ki [9]: > 3980 nM (inactive)
- Ki [10]: > 3160 nM (inactive)
- Ki [11]: > 6310 nM (inactive)
- Ki [12]: > 5010 nM (inactive)
- Ki [13]: > 1580 nM (inactive)
- Ki [14]: > 2510 nM (inactive)
- Ki [15]: > 6310 nM (inactive)
- Ki [16]: > 3160 nM (inactive)
- Ki [17]: > 5010 nM (inactive)
- Ki [18]: > 2510 nM (inactive)
- Ki [19]: > 3980 nM (inactive)
- Ki [20]: > 3160 nM (inactive)
- Ki [21]: > 3160 nM (inactive)
- Ki [22]: > 3980 nM (inactive)
- Ki [23]: 2000 nM (active)
- Ki [24]: > 6310 nM (inactive)
